Measurements reported in patent US9271962B2 (NORTHEASTERN UNIVERSITY, priority 2008, dated 2016).
Read-outs that look alike come from different tables or passages of the source.

Assays:
[1] = molecular target: T1, ΔTM rFAAH (Rattus norvegicus, UniProt P97612); assay: Fluorescent enzyme assay, FAAH (AAMCA hydrolysis); assay type: biochemical; settings: AAMCA substrate, screening assay; for inhibition at 0.01 µM: 10 nM inhibitor; for inhibition at 1 µM: 1000 nM inhibitor
T1 construct: 15 ug of ΔTM rFAAH (cell lysate obtained by recombinant procedure); made in house
T1 sequence (P97612 30-579 limits assumed): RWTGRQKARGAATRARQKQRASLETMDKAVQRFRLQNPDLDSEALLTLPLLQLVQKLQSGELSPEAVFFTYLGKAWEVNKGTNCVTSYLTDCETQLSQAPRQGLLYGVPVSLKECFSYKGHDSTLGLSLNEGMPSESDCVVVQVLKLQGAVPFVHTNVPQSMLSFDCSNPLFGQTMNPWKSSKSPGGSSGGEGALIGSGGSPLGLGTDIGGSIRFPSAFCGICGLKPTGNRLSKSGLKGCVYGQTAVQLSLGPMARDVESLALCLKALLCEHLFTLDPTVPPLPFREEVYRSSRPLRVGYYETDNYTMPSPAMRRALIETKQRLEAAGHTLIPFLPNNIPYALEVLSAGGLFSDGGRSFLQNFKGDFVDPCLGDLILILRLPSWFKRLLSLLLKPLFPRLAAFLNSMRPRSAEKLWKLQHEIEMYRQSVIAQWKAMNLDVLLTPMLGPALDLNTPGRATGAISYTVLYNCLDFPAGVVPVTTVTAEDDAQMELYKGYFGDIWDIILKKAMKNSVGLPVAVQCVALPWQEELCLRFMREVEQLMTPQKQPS
Procedure: (§1) Some analogs were tested for their FAAH/MGL inhibitory activity, which is expressed as % of inhibition (Tables 2, 3, and 4 below). The percentage of inhibition results from three-point assay (three concentrations of inhibitor are used) and it is less accurate (preliminary screening) than the IC50/Ki values that are determined from eight-point assay (eight different concentrations of inhibitor were used). The percentage of inhibition describes the percentage by which the inhibitor reduces the velocity/rate of AAMCA (arachidonoyl-7-amino-4-methylcoumarin amide) or AHMMCE (arachidonoyl-7-hydroxy-6-methoxy-4-methylcoumarin ester) hydrolysis by FAAH or MGL respectively. The IC50 is the concentration of the inhibitor, which results in 50% inhibition of the velocity/rate of AAMCA (arachidonoyl 7-amino-4-methylcoumarin amide) hydrolysis by FAAH or AHMMCE (Arachidonoyl, 7-hydroxy-6-methoxy-4-methylcoumarin ester) hydrolysis by MGL. The Ki value is the affinity constant and describes the ability of the compounds to inhibit the function of FAAH or MGL. The lower the IC50/Ki values, the higher the affinity of the inhibitor for the enzyme and the higher its inhibitory activity. A detailed description of the methods used to test inhibitory activity of compounds is given below.
The enzyme (FAAH and MGL) assays were performed in 96 well plates (Coster #3650) in a total volume of 200 uL. Fluorogenic substrate AAMCA (arachidonoyl 7-amino-4-methylcoumarin amide) for FAAH and AHMMCE (arachidonoyl 7-hydroxy-6-methoxy-4-methylcoumarin ester) for MGL were used using BioTek Synergy HT Microplate Reader. Compounds and substrates were dissolved in DMSO provide a 10 mM stock solution and kept as a stock solution at −20° C. until used for assay. Stock solutions were thawed and reconstituted in 50:50 DMSO/assay buffer to a final DMSO concentration per well below 8%. This ensures that the compounds and substrate are in solution during assay. […] Appropriate substrate was added to adjust the final concentration in each well to 20 uM for FAAH (2× Km) and 10 uM for MGL (1×KM). Fluorescence readings were performed at λex=360/λem=460 for 4 h using Kinetic assay protocol at every 20 min (the fluorescent product coumarin produced is quantitated by this procedure). The readings at 3 h for FAAH and 2 h for MGL (linear maximum hydrolysis kinetics of enzyme on substrate) were used to calculate percent inhibition based on controls. Compounds which had more than 50 percent inhibition at 10 uM were selected for dose response study to determine IC50 values. The dose response at 8 concentration points was performed as with the screening assay except that compounds were serially diluted to 8 concentration points which were chosen based on IC50 value, which were calculated from the screening assay results. Assays are run twice in triplicates and Graphpad Prism software is used to plot inhibition data to obtain IC50 values.

[2] = molecular target: T2, hMGL (Homo sapiens, UniProt Q99685); assay: Fluorescent enzyme assay, MGL (AHMMCE hydrolysis); assay type: biochemical; settings: for inhibition at 0.01 µM: read-out: % Inhibition of Enzyme by inhibitor, MGL, 10 nM; for inhibition at 1 µM: 1000 nM inhibitor; for inhibition at 100 µM: 100 uM inhibitor, printed in the 1000 nM column
T2 construct: A full-length cDNA clone of the human MGL transcript variant 1; made in house; host or cells: E. coli BL21 (DE3)
T2 sequence (Q99685 2-303 limits assumed): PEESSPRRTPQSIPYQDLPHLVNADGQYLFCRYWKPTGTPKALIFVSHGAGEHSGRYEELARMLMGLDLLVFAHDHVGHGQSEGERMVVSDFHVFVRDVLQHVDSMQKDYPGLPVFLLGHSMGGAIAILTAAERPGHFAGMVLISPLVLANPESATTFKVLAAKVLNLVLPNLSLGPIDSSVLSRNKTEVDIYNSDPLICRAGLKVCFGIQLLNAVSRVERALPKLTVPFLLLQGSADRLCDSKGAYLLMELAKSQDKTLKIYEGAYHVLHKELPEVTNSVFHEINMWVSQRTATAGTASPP
Procedure: as §1
A full-length cDNA clone of the human MGL transcript variant 1 (gi: 51242951) was obtained from OriGene Technologies (Rockville, Md.). The coding part of the MGL sequence (except the translation initiation codon ATG) was amplified by a polymerase chain reaction (PCR) using forward […] and reverse […] primers containing PmlI and SacI restriction enzyme recognition sites, respectively. iProof high-fidelity DNA polymerase (Bio-Rad, Hercules, Calif.) was used in the PCR amplification with 33 cycles, each consisting of denaturation at 94° C. for 10 s, annealing at 55° C. for 33 s, and extension at 72° C. for 1 min. The PCR product and pET45b vector were digested with PmlI and SacI restriction enzymes, and the vector was dephosphorylated with CIP followed by in-gel purification using the MinElute Gel Extraction Kit (Qiagen Corp., Valencia, Calif.). The fragment was inserted into the vector directly downstream after the 6 histidine and valine codons, generating the construct pET45His6hMGL for expression of hMGL containing an N-terminal His6-tag. GC10 E. coli cells were used for DNA transformation and plasmid propagation. Mini- and midi-scale plasmid DNA preparations were performed using a GenElute Plasmid Miniprep Kit (Sigma) and PureYield Plasmid Midiprep System (Promega, Madison, Wis.), respectively. In-frame vector-fragment junctions and the coding sequence of the recombinant gene were confirmed by sequencing. The pET45His6hMGL construct was transformed into BL21 (DE3) and Origami (DE3) E. coli expression strains (Novagen, Madison, Wis.).
A single E. coli BL21 (DE3) colony containing the pET45His6hMGL plasmid was inoculated into 12 mL of Luria broth-ampicillin medium and grown overnight with shaking (250 rpm) at 37° C. The next morning, 10 mL of this culture was inoculated into 1 L of fresh Luria broth-ampicillin and allowed to grow until culture turbidity reached an (OD)600 of 0.6-0.8, at which time expression from the T7 promoter was induced by adding isopropyl-β-D-thio-galactopyranoside (1 mM). After 5 h induction, the cells were harvested by centrifugation at 5,000 g for 10 min at 4° C., washed with PBS, and held at −80° C. Five grams (wet-weight) of cells were resuspended in 50 mL lysis buffer (100 mM NaCl; 50 mM Tris, pH 8.0) supplemented with Triton X-100 (0.5%), lysozyme (0.2 mg/mL), and DNase I (25 μg/ml) and disrupted on ice by three, one-min sonication cycles, each consisting of 1-sec sonication bursts at 50 W power separated from each other by a 2-sec interval (Vibra-Cell 500 W, Sonics, Newtown, Conn.). The cell lysate was centrifuged at 10,000 g for 30 min at 4° C. […]

[3] = 10 nM inhibitor, AHMMCE substrate, screening assay
[4] = AHMMCE substrate, screening assay

Row | SMILES | inhibition at 0.01 µM [1] [%] | inhibition at 0.01 µM [2, 3] [%] | inhibition at 1 µM [1] [%] | inhibition at 1 µM [2, 4] [%] | further results
1 | CN(C)C(=O)n1nnc(Cc2ccc(I)cc2)n1 [Compound 18a, 5-(4-iodobenzyl)-N,N-dimethyl-2H-tetrazole-2-carboxamide] | 92 | 97 | – | – | –
2 | CN(CCCCN=[N+]=[N-])C(=O)n1cnc(-c2ccccc2)c1 [Compound 48, N-(4-azidobutyl)-N-methyl-4-phenyl-1H-imidazole-1-carboxamide] | 8 | – | 90 | 14 | –
3 | CC(C)N(C(=O)n1nnc(Cc2ccc(Cl)cc2Cl)n1)C(C)C [Compound 10, 5-(2,4-dichlorobenzyl)-N,N-diisopropyl-tetrazole-2-carboxamide] | – | – | 94 | 11 | –
4 | CN(C)C(=O)Oc1ccc(Cc2nnnn2C(=O)N(C)C)cc1 [Compound 36b, 4-((1-(dimethylcarbamoyl)-1H-tetrazol-5-yl)methyl)phenyl dimethylcarbamate] | 82 | – | – | – | inhibition at 0.01 µM [2]: 98%
5 | CN(C)C(=O)n1cnc(-c2ccccc2)c1 [Compound 33, N,N-dimethyl-4-phenyl-1H-imidazole-1-carboxamide] | – | – | 88 | 6 | –
6 | O=C(N1CCN(Cc2ccc3ccccc3n2)CC1)n1nnc(Cc2ccc(Cl)cc2Cl)n1 [Compound 65, (5-(2,4-dichlorobenzyl)-2H-tetrazol-2-yl)(4-(quinolin-2-ylmethyl)piperazin-1-yl)methanone] | – | – | – | – | inhibition at 100 µM [2]: 68%
7 | CN(C)C(=O)n1nnc(Cc2ccc(-c3ccncc3)cc2)n1 [Compound 44, N,N-dimethyl-5-(4-(pyridin-4-yl)benzyl)-2H-tetrazole-2-carboxamide] | – | – | 12 | 10 | –
8 | CN(C)C(=O)n1nnnc1Cc1ccc(Br)cc1 [Compound 16b] | 92 | 64 | – | – | –
9 | CN(C)C(=O)n1nnc(Cc2ccc(Cl)cc2)n1 [Compound 21a] | 93 | 97 | – | – | –
10 | CN(C)C(=O)n1cc(Cc2ccccc2)nn1 [Compound 70, 4-benzyl-N,N-dimethyl-1,2,3-triazole-1-carboxamide] | – | – | 98 | 99 | –
11 | CN(C)C(=O)n1cnnc1 [Compound 29, N,N-dimethyl-4H-1,2,4-triazole-4-carboxamide] | – | – | 92 | 79 | –
12 | O=C(N(c1ccccc1)c1ccccc1)n1nnnc1Cc1ccc(Cl)cc1Cl [Compound 8b] | – | – | 9 | 21 | –
13 | CN(C)C(=O)N1CC(C(C)(C)C)OC1=O (centres unmarked) [Compound 31, 5-tert-butyl-N,N-dimethyl-2-oxooxazolidine-3-carboxamide] | – | – | 63 | 66 | –
14 | CN(C)C(=O)n1nnnc1Cc1ccc(I)cc1 [Compound 18b] | 86 | 64 | – | – | –
15 | CN(C)C(=O)n1nnnc1Cc1ccc([N+](=O)[O-])cc1 [Compound 22b] | 85 | 22 | – | – | –
16 | CN(C)C(=O)n1nnc(C(F)(F)c2ccccc2)n1 [Compound 46, 5-(difluoro(phenyl)methyl)-N,N-dimethyl-2H-tetrazole-2-carboxamide] | – | 2 | – | 92 | –
17 | COc1ccc(Cc2nnn(C(=O)N(C)C)n2)cc1 [Compound 24a, 5-(4-methoxybenzyl)-N,N-dimethyl-2H-tetrazole-2-carboxamide] | 47 | 21 | – | – | –
18 | CN(C)C(=O)n1ncnn1 [Compound 1a, N,N-dimethyl-2H-tetrazole-2-carboxamide] | 73 | 58 | – | – | –
19 | CN(C)C(=O)n1nnnc1Cc1cccnc1 [Compound 5, N,N-dimethyl-5-(pyridin-3-yl-methyl)-1H-tetrazole-1-carboxamide] | 84 | 81 | – | – | –
20 | CN(C)C(=O)n1nnc(Cc2ccccc2Cl)n1 [Compound 45, 5-(2-chlorobenzyl)-N,N-dimethyl-2H-tetrazole-2-carboxamide] | – | 93 | – | – | –
21 | CN(C)C(=O)n1cnc(-c2ccccc2)n1 [Compound 52, N,N-dimethyl-3-phenyl-1H-1,2,4-triazole-1-carboxamide] | – | 2 | – | 87 | –
22 | CN(C)S(=O)(=O)n1nnc(Cc2ccc(-c3ccccc3)cc2)n1 [Compound 38a] | – | – | 25 | – | –
23 | O=C(N1CCN(Cc2ccc3ccccc3n2)CC1)n1cnc(-c2ccccc2)c1 [Compound 64, (4-phenyl-1H-imidazol-1-yl)(4-(quinolin-2-ylmethyl)piperazin-1-yl)methanone] | – | – | – | – | inhibition at 100 µM [2]: 19%
24 | CN(C)C(=O)n1nnc(Cc2ccc(-c3cccnc3)cc2)n1 [Compound 43, N,N-dimethyl-5-(4-(pyridin-3-yl)benzyl)-2H-tetrazole-2-carboxamide] | – | – | 34 | – | –
